Results as given in patent US11484608B2, “Non-invasive assessment of hepatic mitochondrial metabolism by positional isotopomer NMR tracer analysis (PINTA)” (YALE UNIVERSITY, priority 2017, dated 2022).

Tests used:
[1] = test system: hepatic mitochondrial fluxes (VPC, VCS); test: PINTA / ex vivo NMR tracer study in rats infused with [3-^13C]lactate and [3-^3H]glucose (Example 1); details: 120 min [3-^13C]lactate infusion, mean ± S.E.M.
Source text: Male Sprague-Dawley rats (˜10 weeks of age) were ordered from Charles River (Wilmington, Mass.) at ˜300 g and fed regular chow unless otherwise specified. […] Prior to studies, rats underwent surgery under general isoflurane anesthesia to place polyethylene catheters in the jugular vein and common carotid artery (PE90 and PE50 tubing, respectively; Instech, Plymouth Meeting, Pa.). After 1 week, recovery was verified by confirming that the rats had regained their surgical weight. Unless otherwise specified, all experiments were performed following an overnight fast (16 hrs food withdrawal prior to sacrifice). In both the rodent and human studies, data are represented as the mean of two technical replicates for each subject (i.e. two technical replicates per biological replicate). Sample sizes were selected to give power to detect moderate to large differences between groups (n=5-6 per group), and all animals were included in the final analysis.
The investigator performing the animal studies was not blinded for practical reasons, but the investigators analyzing fluxes were blinded as to the group allocation.
The flux calculations required the following equations using [^13C] glucose positional enrichment in plasma or liver, determined by NMR and GC/MS mass spectrometry. VPC is the rate of pyruvate carboxylase flux as determined from the anaplerotic flow into oxaloacetate (OAA). VCS is defined as the flux of the citrate synthase reaction in the citric acid cycle. […] G2 denotes [m+2] glucose arising from the condensation of two singly-labeled trioses.
GC/MS was used to measure m+1 and m+2 [^13C]glucose enrichment. The total m+1 and m+2 [^13C]glucose enrichment was measured using a pentaacetate derivative: plasma or liver samples were deproteinized using 5 volumes of methanol, dried, and derivatized with 75 μL of 1:1 acetic anhydride:pyridine. After heating to 65° C. for 20 min, the reaction was terminated by adding 25 μL methanol, and m+1 and m+2 (as well as m+3 . . . m+6) were determined by GC/MS (CI mode, m/z 331 [m], 332 [m+1], 333 [m+2], . . . 337 [m+6]). The m+1 and m+2 [^13C] enrichments of the glucose C4C5C6 fragment were determined by generating the aldonitrile pentapropionate derivative: plasma or NMR liver extract samples were dried under N2 gas, and 50 μl hydroxylamine hydrochloride (20 mg/ml in pyridine) were added. The samples were heated at 90° C. for 60 min, then 100 μl propionic anhydride was added, after which the samples were heated at 60° C. for 30 min. Finally, the samples were evaporated under N2 gas, resuspended in ethyl acetate, and the m+1 and m+2 enrichment of the glucose C4C5C6 fragment was measured by GC/MS.
[^13C]alanine enrichment was measured by GC/MS. [^13C] NMR spectroscopy using the BRUKER TOPSPIN® system was utilized to measure relative positional 13C-enrichment of glucose, and combined with the total [^13C]glucose enrichment ([m+1]+2*[m+2]) measured by GC/MS to calculate the positional enrichment of [13C]glucose.
Total [^13C]glutamate enrichment was determined by LC-MS/MS. Approximately 100 mg of liver tissue was weighed out and homogenized in 500 μl ice-cold methanol using a TissueLyser, then centrifuged at 4000 rpm for 10 minutes. The supernatant was then purified by centrifugation (4000 rpm, 10 min) through the PALL NANOSEP® filter (100K) (Port Washington, N.Y.). Glutamate 13C enrichment ([m+1], [m+2]) was then assessed by LC-MS/MS using an AB SCIEX QTRAP 6500 (Framingham, Mass.), equipped with a SHIMADZU ultra-fast liquid chromatography (UFLC) system (Columbia, Md.) and electrospray ionization (ESI) source with negative-ion detection. The measured ion pairs were 146/128 (m0), 147/129 (m+1), and 148/130 (m+2).
Positional enrichment of glucose, glutamate, and alanine was measured by 13C NMR.

[2] = test system: primary hepatocytes (cytosolic and mitochondrial calcium); test: Ca2+ imaging in isolated hepatocytes; format: cell-based, mouse; details: isolated WT hepatocytes (not InsP3R-I KO); 100 nM glucagon or 50 nM vasopressin
Description: Primary hepatocytes were isolated by the Yale Liver Center from wild-type and InsP3R-I KO mice and plated on glass coverslips coated with Rat Collagen Type I. Cells were loaded with the ratiometric cytosolic Ca^2+ indicator dye, Fura-2 AM (Thermo Fisher Scientific), or the mitochondrial matrix-targeted Ca^2+ indicator, Rhod-2 AM (Thermo Fisher Scientific) according to manufacturer's instructions. Ca^2+ imaging experiments were performed in 4-(2-hydroxyethyl)-1-piperazine ethanesulfonic acid (HEPES)-buffered balanced salt solution (25 mM HEPES, 121 mM NaCl, 4.7 mM KCl, 1.2 mM MgSO4, 1.2 mM KPO4, 5 mM NaHCO3, 2.0 mM CaCl2, 10 mM Glucose, pH 7.4) with or without the PKA inhibitor H-89 (25 μM) two to five hr following initial plating. Coverslips were transferred to a custom-built perfusion chamber on the stage of an inverted microscope connected to a RedShirtImaging camera (Olympus Life Science, Waltham, Mass.). […] For cytoplasmic calcium readings, changes in fluorescence (F, λ=340) were normalized by the initial fluorescence (F0, λ=380) and were expressed as F/F0. […] Individual cell responses were normalized to their respective baseline Rhod-2 AM fluorescence values, and changes were expressed as Normalized Δ Fluorescence.

Substance: glucagon
- VPDH/VCS (%) ([1]; rat liver): 2.7 ± 0.1%
- VPK+ME/VPC+PDH (%) ([1]; rat liver): <2%
- VPC/VEGP (%) ([1]; rats): 65 ± 3%
- mitochondrial and cytosolic calcium signaling [2]: increases
